For this experiment, the system named is AMP-activated protein kinase (AMPK). As to the kind of experiment: ADP Quest assay for AMPK activators. It is filed as biochemical. The arrangement: key: fold AMPK activation with vs without activator at 30 µM. As to conditions: fold of AMPK activation to phosphorylate SAMS peptide without and with an activator at the concentration of 30 µM. In a few lines:
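AMPK phosphorylation of SAMS peptide with ATP monitored kinetically at room temperature by ADP Quest fluorescence (ex 530/em 590 nm), reaction started with enzyme. Compounds tested […] in 2-fold dilutions, AMP as reference. E30 is fold activation at 30 µM activator versus none.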

Each structure is given as a SMILES string.

The text below walks through data of US8586747B2, “3,3-dimethyl tetrahydroquinoline derivatives” (Hoffmann-La Roche Inc., priority 2010, dated 2013).

In turn, `CC1(C)Cc2cc(C(=O)O)ccc2NC1c1ccc(F)c(NC(=O)C2CCCCC2)c1` (centres unmarked) [Example 211, 2-(3-(Cyclohexanecarboxamido)-4-fluorophenyl)-3,3-dimethyl-1,2,3,4-tetrahydroquinoline-6-carboxylic acid] registered an E30 of 1.41.
Next, `CC1(C)Cc2cc(C(=O)O)ccc2NC1c1ccc(NS(=O)(=O)c2cccc(F)c2)cc1` (centres unmarked) [Example 212, 2-(4-(3-Fluorophenylsulfonamido)phenyl)-3,3-dimethyl-1,2,3,4-tetrahydroquinoline-6-carboxylic acid]: 1.28; `CC1(C)Cc2cc(C(=O)O)ccc2NC1c1ccc(NS(=O)(=O)c2ccccc2F)cc1` (centres unmarked) [Example 213, 2-(4-(2-Fluorophenylsulfonamido)phenyl)-3,3-dimethyl-1,2,3,4-tetrahydroquinoline-6-carboxylic acid]: 1.27; `CC1(C)Cc2cc(C(=O)O)ccc2NC1c1ccccc1NC(=O)C1CC1` (centres unmarked) [Example 214, 2-(2-(Cyclopropanecarboxamido)phenyl)-3,3-dimethyl-1,2,3,4-tetrahydroquinoline-6-carboxylic acid]: 1.41.
Then `CC1(C)Cc2cc(C(=O)O)ccc2NC1c1ccc(NC(=O)C2CCC2)cc1` (centres unmarked) [Example 215, 2-(4-(Cyclobutanecarboxamido)phenyl)-3,3-dimethyl-1,2,3,4-tetrahydroquinoline-6-carboxylic acid], with 1.38; and `CC1(C)Cc2cc(C(=O)O)ccc2NC1c1ccccc1NC(=O)C1CCC1` (centres unmarked) [Example 216, 2-(2-(Cyclobutanecarboxamido)phenyl)-3,3-dimethyl-1,2,3,4-tetrahydroquinoline-6-carboxylic acid], with 1.36; and `CC1(C)Cc2cc(C(=O)O)ccc2NC1c1ccc(NC(=O)C2=CCCCC2)cc1` (centres unmarked) [Example 217, 2-(4-(Cyclohex-1-enecarboxamido)phenyl)-3,3-dimethyl-1,2,3,4-tetrahydroquinoline-6-carboxylic acid], with 1.27.
Then `CC1(C)Cc2cc(C(=O)O)ccc2NC1c1ccccc1NS(=O)(=O)c1ccc(F)cc1` (centres unmarked) [Example 218, 2-(2-(4-Fluorophenylsulfonamido)phenyl)-3,3-dimethyl-1,2,3,4-tetrahydroquinoline-6-carboxylic acid], with 2.53; and `CC1(C)Cc2cc(C(=O)O)ccc2NC1c1ccccc1NS(=O)(=O)c1ccccc1F` (centres unmarked) [Example 219, 2-(2-(2-Fluorophenylsulfonamido)phenyl)-3,3-dimethyl-1,2,3,4-tetrahydroquinoline-6-carboxylic acid], with 2.57; and `CC1(C)Cc2cc(C(=O)O)ccc2NC1c1ccccc1NS(=O)(=O)c1ccccc1` (centres unmarked) [Example 220, 3,3-Dimethyl-2-(2-(phenylsulfonamido)phenyl)-1,2,3,4-tetrahydroquinoline-6-carboxylic acid], with 1.89.
The compound `CC(C)NS(=O)(=O)c1cccc(C2Nc3ccc(C(=O)O)cc3CC2(C)C)c1` (centres unmarked) [Example 221, 2-(3-(N-isopropylsulfamoyl)phenyl)-3,3-dimethyl-1,2,3,4-tetrahydroquinoline-6-carboxylic acid] returned an E30 of 1.33.
Next, `CC1(C)Cc2cc(C(=O)O)ccc2NC1c1ccccc1NS(=O)(=O)c1cccc(F)c1` (centres unmarked) [Example 222, 2-(2-(3-Fluorophenylsulfonamido)phenyl)-3,3-dimethyl-1,2,3,4-tetrahydroquinoline-6-carboxylic acid]: 2.09.
Then `CC1(C)Cc2cc(C(=O)O)ccc2NC1c1ccccc1NS(C)(=O)=O` (centres unmarked) [Example 223, 3,3-Dimethyl-2-(2-(methylsulfonamido)phenyl)-1,2,3,4-tetrahydroquinoline-6-carboxylic acid], with 1.94; and `CN1CCC(NC(=O)c2cccc(C3Nc4c(cccc4C(=O)O)CC3(C)C)c2)C1` (centres unmarked) [Example 224, 3,3-Dimethyl-2-(3-(1-methylpyrrolidin-3-ylcarbamoyl)phenyl)-1,2,3,4-tetrahydroquinoline-8-carboxylic acid], with 1.43.
Next, `CN1CCC(NC(=O)c2cccc(C3Nc4ccc(Cl)cc4CC3(C)C)c2)C1` (centres unmarked) [Example 225, 3-(6-Chloro-3,3-dimethyl-1,2,3,4-tetrahydroquinolin-2-yl)-N-(1-methylpyrrolidin-3-yl)benzamide]: 1.64; `CNS(=O)(=O)c1ccc(C2Nc3ccc(C(=O)O)cc3CC2(C)C)cc1` (centres unmarked) [Example 226, 3,3-Dimethyl-2-(4-(N-methylsulfamoyl)phenyl)-1,2,3,4-tetrahydroquinoline-6-carboxylic acid]: 1.32.
Compound `CC1(C)Cc2cc(C(=O)O)ccc2NC1c1cccc(S(=O)(=O)N2CCCC2)c1` (centres unmarked) [Example 227, 3,3-Dimethyl-2-(3-(pyrrolidin-1-ylsulfonyl)phenyl)-1,2,3,4-tetrahydroquinoline-6-carboxylic acid] displayed an E30 of 1.2.
Next, `CNS(=O)(=O)c1cccc(C2Nc3ccc(C(=O)O)cc3CC2(C)C)c1` (centres unmarked) [Example 228, 3,3-Dimethyl-2-(3-(N-methylsulfamoyl)phenyl)-1,2,3,4-tetrahydroquinoline-6-carboxylic acid]: 1.38.
Then `CN1CCC(NS(=O)(=O)c2cccc(C3Nc4ccc(C(=O)O)cc4CC3(C)C)c2)C1` (centres unmarked) [Example 229, 3,3-Dimethyl-2-(3-(N-(1-methylpyrrolidin-3-yl)sulfamoyl)phenyl)-1,2,3,4-tetrahydroquinoline-6-carboxylic acid], with 1.33; and `CC1(C)Cc2cc(C(=O)O)ccc2NC1c1cccc(S(=O)(=O)Nc2ccccc2)c1` (centres unmarked) [Example 230, 3,3-Dimethyl-2-(3-(N-phenylsulfamoyl)phenyl)-1,2,3,4-tetrahydroquinoline-6-carboxylic acid], with 1.27; and `CN(C)S(=O)(=O)c1cccc(C2Nc3ccc(C(=O)O)cc3CC2(C)C)c1` (centres unmarked) [Example 231, 2-(3-(N,N-dimethylsulfamoyl)phenyl)-3,3-dimethyl-1,2,3,4-tetrahydroquinoline-6-carboxylic acid], with 1.31.
As to `CC1(C)Cc2cc(C(=O)O)ccc2NC1c1ccccc1NC(=O)c1ccccn1` (centres unmarked) [Example 232, 3,3-Dimethyl-2-(2-(picolinamido)phenyl)-1,2,3,4-tetrahydroquinoline-6-carboxylic acid], the E30 is reported as 1.28.
As to `CC(C)(Oc1cccc(C2Nc3ccc(C(=O)O)cc3CC2(C)C)c1)C(=O)O` (centres unmarked) [Example 233, 2-(3-(2-Carboxypropan-2-yloxy)phenyl)-3,3-dimethyl-1,2,3,4-tetrahydroquinoline-6-carboxylic acid], the E30 amounted to 1.29.
